“Also recorded” adds a separate entry of the source.
What was measured:
[1] = tested on: SiHa human cervical cell line; assay: In vitro cytotoxicity (SRB growth inhibition) assay, SiHa; type: cell-based; set-up: dose or concentration left out as unconfirmed; settings: 72 h
Procedure: The SHetA2, SHetA3, SHetA4, SHet50 and 9-cis-RA compounds were evaluated in 4 cervical carcinoma cell lines. The SiHa, CC-1 and C33a human cervical cell lines were maintained in Minimal Essential Media (MEM) containing Earle's salts and L-glutamine supplemented with nonessential amino acids, 1% sodium pyruvate, 10% fetal bovine serum (FBS) and antibiotic/antimycotic. The HT-3 cervical carcinoma cell line was cultured in McCoy's 5a medium supplemented with 10% FBS and antibiotic/antimycotic. Cells were inoculated into 96 well microtiter plates at densities of 1000 cells/well and incubated for 24 h prior to addition of drugs. Drugs were dissolved in dimethyl sulfoxide (DMSO) and diluted in complete medium, prior to addition to triplicate culture wells to achieve final concentrations of […]. Following drug addition, the plates were incubated for 72 h. The assay was terminated by the addition of cold TCA and the cells were stained with 0.4% sulforhodamine B (SRB) in 1% acetic acid. Bound stain was subsequently solubilized with 10 mM trizma base, and the absorbance was read on an automated plate reader at a wavelength of 560 nm. Growth inhibition was determined by dividing the average Optical Density (OD) of the triplicated treated cultures by the average OD of the triplicate control cultures treated with DMSO solvent only. This ratio was converted into a percentage by multiplying by 100. The potency (concentration required to induce half of the maximal activity—GI50) were derived from dose-response graphs generated with results from 3 to 5 individual experiments using GraphPad Software.

[2] = tested on: ovarian carcinoma organotypic cultures; assay: Organotypic culture model of ovarian tumors; type: cell-based, human; settings: 1 μM retinoid in media; 3, 7 or 14 days
Procedure: FIG. 17. Retinoid effects on ovarian carcinoma organotypic cultures. Organotypic cultures of OVCAR-3 (A, B, E, F, I and J), Caov-3 (C and G), SK-OV-3 (D and H), and O2 (K and L) were grown in the absence (−, top row and K) or presence (+, middle row and I, J and L) of retinoid HetA4 at a concentration of 1 μM in the media. All sections were stained with H&E except for I, which was stained with PAS to detect glycoproteins and glandular differentiantion, and J, which was stained with the TUNEL assay to detect apoptosis. All magnifications are 40×.
To test our hypotheses, we evaluated the effects of clinically achievable concentrations of 4-HPR and Flex-Hets on growth, differentiation and apoptosis in ovarian tissue. A series of compounds with a variety of receptor activation profiles were evaluated. In order to evaluate therapeutic effects, we developed an organotypic culture model of ovarian tumors by growing established cell lines and primary cultures inside collagen gels. Monolayer cultures of cells are not accurate representations of in vivo tissue because they lack the types of interactions that cells have with other cells and with the extracellular matrix in vivo. These interactions are known to influence gene expression and thus the constitution and behavior of cells. In our organotypic model, the growth of tumor cells inside the collagen allows a representation of tumors that have invaded stromal tissue. In the presence of fibroblasts, established cell lines and primary cultures of ovarian cancer formed colonies inside the collagen, while normal or benign ovarian epithelial cells remained as single cells inside the collagen. Human ovarian cancer cell lines (OVCAR-3, Caov-3, SK-OV-3, A2780, UCI 101) and primary human cultures (borderline ovarian tumor (O1), serous papillary tumor (O2), benign ovarian cyst (O3)) were cultured inside and on top of a collagen gel seeded with 3T3 fibroblasts for one week. After further incubation in the presence or absence of 1 μM retinoid (media concentration) for 3, 7 or 14 days, cultures were fixed and sectioned for immunohistochemical analysis.

Raldh2 −/− embryos = assay: Rescue of Raldh2 −/− embryos and teratogenesis; type: in vivo, mouse; settings: for No. of −/− rescued / No. of −/− unrescued / Teratogenesis (no. of embryos): E10.25 embryos
Procedure: Dosages varied from 0.025 to 25 mg/kg.

[3] = tested on: A2780 ovarian xenograft tumors; assay: A2780 ovarian xenograft tumor model; type: in vivo, mouse; settings: oral 60 mg/kg/day
Procedure: FIG. 12. Various Xenograft tumors stained with CD34 antibodies (brown) to identify endothelium. The B16 mouse melanoma cell line was established as a syngeneic tumor in an immunocompetent mouse model and the human Caki renal cancer and A2780 ovarian xenograft tumors in immunocompromised mice. The treated mice were gavaged with 60 mg/kg/day SHetA2 and the untreated were gavaged with solvent only. The tumors were excised and sections were stained with the anti-CD34 antibody to detect endothelial cells (brown stain).
Survival was the primary endpoint of those studies. […] Tumor growth was the primary endpoint of the renal cancer study.

[4] = Alanine aminotransferase (ALT) activity in plasma of mice; type: in vivo, mouse; settings: end of treatment, 10 mg/kg/day by gavage
Procedure: At the end of the treatment period, blood was drawn from each animal. Plasma was separated by centrifugation and stored at −70° C. The activity of ALT was determined in aliquots of plasma by standard spectrophotometric enzymatic techniques which are based on the reduction of pyruvate by lactate dehydrogenase (28). The method measures NADH disappearance with time of incubation at 37° C. The activities are expressed as mm/L/min. Two different amounts of plasma were used in each assay to assure measurement of the maximum rate.

[5] = dose 2.5 mg/kg oral to pregnant mice
[6] = dose 10 mg/kg oral to pregnant mice
[7] = dose 25 mg/kg oral to pregnant mice

## CC1(C)CC(C)(C)c2cc(NC(=S)Nc3ccc([N+](=O)[O-])cc3)ccc2S1 [SHetA2]
[1]
  Efficacy: percent growth inhibition relative to the untreated control: 68%
[2]
  induction of apoptosis (TUNEL) in organotypic cultures: Apoptosis was induced; also recorded: highest level of apoptosis
  regulation of growth, differentiation and apoptosis, rank among eleven retinoids: most potent regulator of growth, differentiation and apoptosis
Raldh2 −/− embryos; 2.5 mg/kg to pregnant mothers
  rescue of Raldh2 −/− embryos (phenotype): no rescue
Raldh2 −/− embryos; 10 or 25 mg/kg to pregnant mothers
  rescue of Raldh2 −/− embryos (phenotype): no rescue
Raldh2 −/− embryos; any dosage (2.5, 10, 25 mg/kg)
  teratogenesis in litters: no teratogenesis was observed
Raldh2 −/− embryos; [5]
  No. of −/− rescued: 0
  No. of −/− unrescued: 1
  Teratogenesis (no. of embryos): 0
Raldh2 −/− embryos; [6]
  No. of −/− rescued: 0
  No. of −/− unrescued: 5
  Teratogenesis (no. of embryos): 0
Raldh2 −/− embryos; [7]
  No. of −/− rescued: 0
  No. of −/− unrescued: 1
  Teratogenesis (no. of embryos): 0
[3]; ovarian cancer model
  survival: improved survival
[3]; ovarian
  development of blood vessels inside tumors (anti-CD34 staining): inhibited the development of blood vessels
[4]
  ALT Activity: 118.5 ± 153.4 mm/liter/min

From US20060281806A1, “Treatment and inhibition of disease conditions using flexible heteroarotinoids” (priority 2005, published 2006)
